The text below walks through data of patent US4877795A, “4H-quinolizin-4-one compounds useful for the treatment of allergic bronchial asthma, allergic rhinitis atropic dermatitis and the like” (Kissei Pharmaceutical Co., Ltd., priority 1987, dated 1989).

Broadly, the inhibition is the change of the read-out against control, counted positive when it falls.

For one assay, the system named is IgE. Nature of the assay: Determination of Igs produced in in vitro culture: inhibition of IgE secreted by spleen cells (adoptive secondary immune response to DNP-As), ELISA. Particulars: 4 days culture; for inhibition at 1 µg/mL / Inhibition % of IgE: 1.0 μg/ml; for inhibition at 10 µg/mL: 10.0 μg/ml; for inhibition at 40 µg/mL: 40.0 μg/ml; for inhibition at 5 µg/mL: 5.0 μg/ml; for inhibition at 0.25 µg/mL: 0.25 μg/ml; for inhibition at 2.5 µg/mL: 2.5 μg/ml. In kind it is cell-based, BALB/c mice. In outline:
(§1)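 Donor BALB/c mice primed i.p. with 5 μg DNP-As on alum; 5×10^7 spleen cells transferred i.v. into 600-rad-irradiated recipients, boosted likewise. After 4 weeks, recipient spleen cells (5×10^6 cells/ml) cultured ± compound 4 days at 37° C; secreted IgG/IgE quantified by ELISA, % inhibition vs untreated culture.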

In a further assay the test system is IgG. Nature of the assay: Determination of Igs produced in in vitro culture: inhibition of IgG secreted by spleen cells (adoptive secondary immune response to DNP-As), ELISA. The following applies: 4 days culture; for inhibition at 1 µg/mL / Inhibition % of IgG: 1.0 μg/ml; for inhibition at 10 µg/mL: 10.0 μg/ml; for inhibition at 40 µg/mL: 40.0 μg/ml; for inhibition at 5 µg/mL: 5.0 μg/ml; for inhibition at 0.25 µg/mL: 0.25 μg/ml; for inhibition at 2.5 µg/mL: 2.5 μg/ml. It is filed as cell-based, BALB/c mice. The gist of the method: as §1
On the technique in general: ELISA stands for enzyme-linked immunosorbent assay.

For the compound `CSc1c(C#N)c(=O)n2ccccc2c1C(=O)OCC(Cl)(Cl)Cl` [S-4, 2',2',2'-Trichloroethyl 3-cyano-2-methylthio-4H-quinolizin-4-one-1-carboxylate], the inhibition at 1 µg/mL turned out to be 68% with IgE (Mus musculus, 96 h) and 39% with IgG (Mus musculus, 96 h).
Take `CCOc1ccc(COC(=O)c2c(SC)c(C#N)c(=O)n3ccccc23)cc1` [S-33, 4'-Ethoxybenzyl 3-cyano-2-methylthio-4H-quinolizin-4-one-1-carboxylate]: the inhibition at 20 µg/mL in the assay with IgE (Mus musculus, 96 h, 20.0 μg/ml) was determined as 81%; in the assay with IgG (Mus musculus, 96 h, 20.0 μg/ml), 47%.
`CSc1c(C#N)c(=O)n2ccccc2c1C(=O)OCc1ccccc1` [S-29, Benzyl 3-cyano-2-methylthio-4H-quinolizin-4-one-1-carboxylate]: the inhibition at 1 µg/mL is 69% with IgE (Mus musculus, 96 h) and 31% in the assay on IgG (Mus musculus, 96 h).
Turning to `C#CCOC(=O)c1c(SC)c(C#N)c(=O)n2ccccc12` [S-6, 2'-Propynl 3-cyano-2-methylthio-4H-quinolizin-4-one-1-carboxylate], the inhibition at 10 µg/mL with IgE (Mus musculus, 96 h) stood at 63%; in the assay with IgG (Mus musculus, 96 h), 35%.
With `CSc1c(C#N)c(=O)n2ccccc2c1C(=O)N(C)Cc1ccccc1` [S-66, N-Benzyl-3-cyano-N-methyl-2-methylthio-4H-quinolizin-4-one-1-carboxamide], the inhibition at 40 µg/mL turned out to be 64% in the assay on IgE (Mus musculus, 96 h) and 35% with IgG (Mus musculus, 96 h).
Consider `CSc1c(C#N)c(=O)n2ccccc2c1C(=O)CCCCc1ccccc1` [S-107, 3-Cyano-2-methylthio-1-(5-phenylvaleryl)-4H-quinolizin-4-one], for which the inhibition at 1 µg/mL with IgE (Mus musculus, 96 h) worked out at 80%; with IgG (Mus musculus, 96 h), 43%.
In the case of `CSc1c(C#N)c(=O)n2ccccc2c1C(=O)NC1CCCCC1` [S-72, 3-Cyano-N-cyclohexyl-2-methylthio-4H-quinolizin-4-one-1-carboxamide], the inhibition at 5 µg/mL in the assay with IgE (Mus musculus, 96 h) was 46%; in the assay on IgG (Mus musculus, 96 h), -5%.
For the compound `CSc1c(C#N)c(=O)n2ccccc2c1C(=O)OC1CCCCCC1` [S-19, Cycloheptyl 3-cyano-2-methylthio-4H-quinolizin-4-one-1-carboxylate], the inhibition at 5 µg/mL turned out to be 71% in the assay on IgE (Mus musculus, 96 h) and 27% with IgG (Mus musculus, 96 h).
For `CSc1c(C#N)c(=O)n2ccccc2c1C(=O)OCC1CC1` [S-2, Cyclopropylmethyl 3-cyano-2-methylthio-4H-quinolizin-4-one-1-carboxylate] the same measures were 51% and 27%.
On the same counts, the results for `CSc1c(C#N)c(=O)n2ccccc2c1C(=O)OCCCc1ccccc1` [S-45, 3'-Phenylpropyl 3-cyano-2-methylthio-4H-quinolizin-4-one-1-carboxylate] are 71% and 16%.
In the case of `CSc1c(C#N)c(=O)n2ccccc2c1C(=O)N(C(C)C)C(C)C` [S-63, 3-Cyano-N,N-diisopropyl-2-methylthio-4H-quinolizin-4-one-1-carboxamide], the inhibition at 40 µg/mL in the assay with IgE (Mus musculus, 96 h) is 85%; in the assay with IgG (Mus musculus, 96 h), 47%.
For the compound `CSc1c(C#N)c(=O)n2ccc(C)cc2c1C(=O)OCCCc1ccccc1` [S-51, 3'-Phenylpropyl 3-cyano-8methyl-2-methylthio-4H-quinolizin-4-one-1-carboxylate], the inhibition at 1 µg/mL with IgE (Mus musculus, 96 h) was determined as 65%; in the assay with IgG (Mus musculus, 96 h) it was 43%.
On to `CSc1c(C#N)c(=O)n2ccccc2c1C(=O)OC(C)c1ccccc1` (stereo not drawn) [S-24, 1'-Phenylethyl 3-cyano-2-methylthio-4H-quinolizin-4-one-1-carboxylate], for which the inhibition at 40 µg/mL came to 77% in the assay on IgE (Mus musculus, 96 h) and 54% in the assay with IgG (Mus musculus, 96 h).
Consider `COC(=O)c1ccc(CNC(=O)c2c(SC)c(C#N)c(=O)n3ccccc23)cc1` [S-77], for which the inhibition at 5 µg/mL with IgE (Mus musculus, 96 h) stood at 34%; in the assay with IgG (Mus musculus, 96 h) it was 10%.
As for `CSc1c(C#N)c(=O)n2ccccc2c1C(=O)CC1CCN(c2ccccc2)CC1` [S-109, 3-Cyano-2-methylthio-1-(1-phenyl-4-piperidylacetyl)-4-quinolizin-4-one], the “Inhibition % of IgE” value in the assay with IgE worked out at 77%. The “Inhibition % of IgG” value with IgG was 54%.
Consider `CSc1c(C#N)c(=O)n2ccccc2c1C(=O)Cc1ccc(Cl)cc1` [S-96, 1-(4-Chlrophenylacetyl)-3-cyano-2-methylthio-4H-quinolizin-4-one], for which the inhibition at 5 µg/mL is 41% in the assay on IgE (Mus musculus, 96 h) and 12% in the assay on IgG (Mus musculus, 96 h).
For `N#Cc1c(SCc2ccccc2)c(C(=O)N2CCC(c3ccccc3)CC2)c2ccccn2c1=O` (single isomer, unassigned) [S-83B, 2-Benzylthio-3-cyano-1-(4-phenylpiperidinocarbonyl)-4H-quinolizin-4-one], the inhibition at 0.25 µg/mL in the assay with IgE (Mus musculus, 96 h) came out at 41%; in the assay on IgG (Mus musculus, 96 h) it was 10%.
With `CSc1c(C#N)c(=O)n2ccccc2c1C(=O)CCCc1cccs1` [S-106, 3-Cyano-2-methylthio-1-(4-thienylbutyryl)-4H-quinolizin-4-one], the “Inhibition % of IgE” value with IgE is reported as 61%. For the same compound, in the assay with IgG, the “Inhibition % of IgG” value is 26%.
Regarding `CCOC(=O)c1c(SCc2ccccc2)c(C#N)c(=O)n2ccccc12` [S-59, Ethyl 3-cyano-2-benzylthio-4H-quinolizin-4-one-1-carboxylate], the inhibition at 40 µg/mL in the assay with IgE (Mus musculus, 96 h) is 74%; with IgG (Mus musculus, 96 h), 49%.
Take `CSc1c(C#N)c(=O)n2ccccc2c1C(=O)Cc1cccc2ccccc12` [S-103, 3-Cyano-2-mehtylthio-1-(1-naphthylacetyl)-4H-quinolizin-4-one]: the inhibition at 2.5 µg/mL in the assay with IgE (Mus musculus, 96 h) is 49%; with IgG (Mus musculus, 96 h), 15%.
As for `CSc1c(C#N)c(=O)n2ccccc2c1C(=O)N1CCN(Cc2ccc3c(c2)OCO3)CC1` [S-89, 3-Cyano-2-methylthio-1-(4-piperonyl-1-piperadinyl-carbonyl)-4H-quinolizin-4-one], the inhibition at 5 µg/mL in the assay on IgE (Mus musculus, 96 h) turned out to be 58%; in the assay on IgG (Mus musculus, 96 h), 32%.
Turning to `CSc1c(C#N)c(=O)n2ccccc2c1C(=O)OCCCC1CCCCC1` [S-3, 3'-Cyclohexylpropyl 3-cyano-2-methylthio-4H-quinolizin-4-one-1-carboxylate], the inhibition at 1 µg/mL was found to be 79% in the assay with IgE (Mus musculus, 96 h) and 35% in the assay with IgG (Mus musculus, 96 h).
Regarding `CSc1c(C#N)c(=O)n2ccccc2c1C(=O)OCc1ccc(-c2ccccc2)cc1` [S-40, 4'-phenylbenzyl 3-cyano-2-methylthio-4H-quinolizin-4-one-1-carboxylate], the inhibition at 0.25 µg/mL stood at 53% with IgE (Mus musculus, 96 h) and 34% in the assay on IgG (Mus musculus, 96 h).
As to `CSc1c(C#N)c(=O)n2ccccc2c1C(=O)Cc1ccc(C)cc1` [S-99, 3-Cyano-1-(4-methylphenylacetyl)-2-methylthio-4H-quinolizin-4-one], the inhibition at 10 µg/mL with IgE (Mus musculus, 96 h) came to 52%; with IgG (Mus musculus, 96 h) it was 1%.
For the compound `CSc1c(C#N)c(=O)n2ccccc2c1C(=O)OC1C=CCCC1` (stereo not drawn) [S-15, 2'-Cyclohexenyl 3-cyano-2-methylthio-4H-quinolizin-4-one-1-carboxylate], the inhibition at 40 µg/mL with IgE (Mus musculus, 96 h) was determined as 62%; in the assay on IgG (Mus musculus, 96 h), 21%.
Consider `CSc1c(C#N)c(=O)n2ccccc2c1C(=O)OC1CCC1` [S-13, Cyclobutyl 3-cyano-2-methylthio-4H-quinolizin-4-one-1-carboxylate], for which the inhibition at 5 µg/mL is 67% with IgE (Mus musculus, 96 h) and 9% with IgG (Mus musculus, 96 h).
As to `CSc1c(C#N)c(=O)n2ccccc2c1C(=O)NC1CCCc2ccccc21` (stereo not drawn) [S-76, 3-Cyano-2-methylthio-N-(1,2,3,4-tetrahydro-1-naphthyl)-4H-quinolizin-4-one-1-carboxamide], the inhibition at 2.5 µg/mL in the assay with IgE (Mus musculus, 96 h) turned out to be 37%; in the assay with IgG (Mus musculus, 96 h), 1%.
